Data set [1] concerns HBV DNA in HepG2.2.15 cells. Kind of data set: In vitro anti-HBV activity assay (HBV DNA in HepG2.2.15 supernatant, qPCR). It counts as cell-based. Particulars: Hepatitis B virus, HepG2.2.15, 192 h; inhibition of HBV DNA in supernatant, 8 days culture. The protocol:
1) 100 μL of HepG2.2.15 cells were seeded at a number of 1.2×10^5 cells per well into a 96-well cell culture plate, and then the cells were cultured in a 37° C. incubator with 5% carbon dioxide (CO2) overnight. On day 2, the compounds to be tested were diluted with DMSO in 3-fold gradient to eight concentrations in total. Then the compounds were diluted 100-fold with culture medium, and 100 μL of the diluted compounds were taken and added to the cell-containing plate in a final volume of 200 μL, and the final concentration of DMSO was 0.5%, and two duplicate wells were used. The cells were cultured in a 37° C. incubator with 5% CO2 for 3 days. On day 5, the solutions in the cell culture plate were replaced with fresh culture medium containing the same concentrations of compounds. When culture was performed for 8 days, cell culture plate supernatant was collected for the extraction of HBV DNA.
2) Detection of HBV DNA by real-time quantitative PCR: the total DNA in the supernatant was extracted with QIAamp 96 DNA Blood Kit, and the content of HBV DNA was detected by quantitative PCR using HBV specific primers and probes. 20 μL PCR pre-mixed solution and 5 μL HBV DNA sample or HBV plasmid standard sample were added to a quantitative PCR plate for reaction. The HBV plasmid standard sample was diluted in 10-fold gradient to seven concentrations from 10^7 to 10 copies/μL. The quantitative PCR reaction procedure was as follows: pre-denaturation at 95° C. for 10 minutes; denaturation at 95° C. for 15 seconds, reaction at 60° C. for 1 minute, and this cycle was repeated 40 times. The inhibition rate of each well against HBV DNA was calculated according to the following equation, and the inhibition rate data of the compounds were subjected to a non-linear fitting analysis using GraphPad Prism software to obtain EC50 values of the compounds. HBV DNA inhibition rate %=(1−copy number of HBV DNA of the sample/copy number of HBV DNA of DMSO control)*100% The assay results are shown in Table 1 below.
For orientation: Real-time PCR tracks product formation cycle by cycle.

Data set [2] in a line: Pharmacokinetic study for mouse (single intravenous or gavage administration). In kind it is in vivo, mice. Particulars: for clearance / half-life / AUC(0-t) / Vd / Cmax / Tmax: plasma; for AUC(0-t): read-out: AUC0-24 h; for Vd: read-out: Vdss. The protocol: This experiment aims to evaluate the pharmacokinetic behavior of the compounds after a single intravenous or gavage administration in mice. As for the intravenous administration, the compounds were formulated into 0.5 mg/mL clear solutions, vehicle: 5% DMSO/5% 12-hydroxy stearate (solutol)/90% water; as for the gavage administration, the compounds were formulated into 2 mg/mL suspensions, vehicle: 0.5% sodium carboxymethylcellulose/0.2% Tween 80/99.3% water.
The concentrations of the compounds in plasma were determined by high-performance liquid chromatography-tandem mass spectrometry (LC-MS/MS). The retention time, chromatogram acquisition and integration of the chromatograms of the compounds and the internal standard (diclofenac) were processed using the software Analyst (Applied Biosystems), and data statistics were processed using the software Watson LIMS (Thermo Fisher Scientific) or Analyst (Applied Biosystems). The concentration unit of the analyte in the sample is ng/mL, 3 significant digits were retained, and all the values represented by percentages (e.g., % deviation and % coefficient of variation, etc.) have one decimal place. Each calibration curve contains at least 6 concentration levels. The calibration standard samples were formulated using stock solutions from different sources from the quality control samples. If the deviation between the calculated concentration of a calibration standard sample and the indicated value exceeds ±15.0% (the lower limit of quantitation exceeds ±20.0%), such standard sample should be excluded in regression analysis. The excluded calibration standard samples should be less than 25%, and each calibration curve contains at least 6 calibration standard samples that meet the acceptable standard. If the calibration standard samples at the lower and upper limits of quantification need to be excluded, the upper and lower limits of quantification of this batch of analytes will be increased and decreased accordingly.
Plasma concentrations were processed using a non-compartmental model of the WinNonlin™ Version 6.3 (Pharsight, Mountain View, Calif.) pharmacokinetic software, and pharmacokinetic parameters were calculated using the linear logarithmic trapezoidal method. The pharmacokinetic parameters to be calculated include, but are not limited to (if the data is not allowed), T1/2, Vdss, CL, AUC0-24h of the intravenous group; Cmax, Tmax, AUC0-24h and bioavailability (F %) of the oral gavage group.

Data set [3] concerns HBV. Kind of data set: In vivo activity assay of HBV DNA in mouse plasmid model of tail vein high-pressure injection (Example 23). Also on record: species or system female BABL/c mice. The conditions noted are these: 60 mg/Kg, gavage. The method, then: The purpose of this study was to test the inhibitory effect of the compound (Example 23) against HBV in mice through a mouse model of high-pressure tail vein injection. In this experiment, female BABL/c mice were used, and the mice were 6-7 weeks old. The HBV plasmid DNA was extracted by using pAAV2-HBV 1.3 mer with Qiagen EndoFree Plasmid Giga kit at a concentration of 1000 ng/μL. The resulting solution was diluted with normal saline before use and stored at 4° C. until use.

Like-named read-outs stand apart in the source and are kept apart here.

Broadly, the EC50 is the midpoint of the concentration-response curve. A higher EC50 goes with a need for much substance. For `C[C@H]1Cc2noc(-c3ccc(F)cc3F)c2CN1C(=O)Nc1ccc(F)c(C#N)c1` [Example 19], the concentration giving a half-maximal response (EC50) in data set [1] was 10.4 nM.

`C[C@H]1Cc2noc(-c3nccs3)c2CN1C(=O)Nc1cc(F)c(F)c(F)c1` [Example 16]: a half-maximal response in data set [1] (EC50) required 24.6 nM.

Regarding `COc1ccc(-c2onc3c2CN(C(=O)Nc2cc(F)c(F)c(F)c2)[C@@H](C)C3)cc1` [Example 9], the midpoint of the response in data set [1], the EC50, lay at 10.5 nM.

In turn, `COc1cccc(-c2onc3c2CN(C(=O)Nc2cc(F)c(F)c(F)c2)[C@@H](C)C3)c1` [Example 8] had an EC50 in data set [1] of 37.3 nM. This EC50 is about 3.6-fold higher than that of the molecule before.

`C[C@H]1Cc2noc(-c3ccc(Cl)cc3)c2CN1C(=O)Nc1cc(F)c(F)c(F)c1` [Example 12] displayed a concentration giving a half-maximal response (EC50) in data set [1] of 68.8 nM.

In turn, `C[C@H]1Cc2noc(-c3ccc(F)cc3)c2CN1C(=O)Nc1cc(F)c(F)c(F)c1` [Example 5] had a half-maximal effective concentration (EC50) in data set [1] of 24.7 nM.

Molecule `C[C@H]1Cc2noc(-c3cscn3)c2CN1C(=O)Nc1cc(F)c(F)c(F)c1` [Example 15] yielded a concentration for a half-maximal effect (EC50) in data set [1] of 6.7 nM.

For the molecule `C[C@H]1Cc2noc(-c3cnccn3)c2CN1C(=O)Nc1cc(F)c(F)c(F)c1` [Example 13], in data set [1], the midpoint of the response, the EC50, lay at 58.9 nM. Against the preceding molecule, the EC50 is about 8.8-fold higher.

As to `C[C@H]1Cc2noc(-c3ncccn3)c2CN1C(=O)Nc1ccc(F)c(F)c1` [Example 26], the 50% effective concentration (EC50) in data set [1] worked out at 19.1 nM. Compared with the last molecule, the EC50 is about 3.1-fold lower.

On to `C[C@H]1Cc2noc(-c3ccc(F)cc3F)c2CN1C(=O)Nc1ccc(F)c(Cl)c1` [Example 20], for which the half-maximal effective concentration (EC50) in data set [1] amounted to 8.66 nM.

Take `C[C@H]1Cc2noc(-c3ccsn3)c2CN1C(=O)Nc1cc(F)c(F)c(F)c1` [Example 18]: the 50% effective concentration (EC50) in data set [1] came to 12.2 nM. This EC50 and that of the molecule before are within 1.5-fold of each other.

Consider `C[C@H]1Cc2noc(-c3ncccn3)c2CN1C(=O)Nc1ccc(F)c(Cl)c1` [Example 24], for which the concentration giving a half-maximal response (EC50) in data set [1] worked out at 15.6 nM.

Broadly, the half-life is the time needed for the level to fall by half in the phase considered. A lower half-life goes with fast loss. By Cmax is commonly meant the highest concentration seen after dosing. For orientation: Tmax means the time at which the peak concentration occurs. The molecule `C[C@H]1Cc2noc(-c3ncccn3)c2CN1C(=O)Nc1ccc(F)c(C#N)c1` [Example 23] had a F in data set [2] (oral gavage, 3 mg/Kg) of 55.3%. This molecule registered a clearance in data set [2] (intravenous injection, 1 mg/Kg) of 4.36 mL/min/kg. In data set [2] (intravenous injection, 1 mg/Kg), the half-life was 3.03 h. Also, the AUC(0-t) in data set [2] (intravenous injection, 1 mg/Kg) was determined as 10 µM·h; in data set [2] (oral gavage, 3 mg/Kg), 16.7 µM·h. Further, the Vd in data set [2] (intravenous injection, 1 mg/Kg) amounted to 1.09 L/kg. Further, in data set [2] (oral gavage, 3 mg/Kg), the highest level (Cmax) was 3.4 µM. For the same molecule, the Tmax in data set [2] (oral gavage, 3 mg/Kg) was determined as 0.5 h. In data set [1], it took 25.4 nM to reach a half-maximal effect (EC50). Moreover, the “Log HBV DNA mean value” in data set [3] (liver tissue after 7 days of administration, BID, solvent control 6.01) stood at 4.50 copy number/μL; in data set [3] (liver tissue after 7 days of administration, QD, solvent control 6.01) it was 5.18 copy number/μL; in data set [3] (plasma, Day 1, BID, solvent control 2.03), 1.94 copy number/μL; in data set [3] (plasma, Day 1, QD, solvent control 2.03), 2.10 copy number/μL; in data set [3] (plasma, Day 3, BID, solvent control 4.47), 3.02 copy number/μL; in data set [3] (plasma, Day 3, QD, solvent control 4.47), 3.15 copy number/μL. The “Log HBV DNA mean value” in data set [3] (plasma, Day 5, BID, solvent control 4.76) came to 2.94 copy number/μL; in data set [3] (plasma, Day 5, QD, solvent control 4.76), 3.92 copy number/μL; in data set [3] (plasma, Day 7, BID, solvent control 3.53) it was 2.14 copy number/μL; in data set [3] (plasma, Day 7, QD, solvent control 3.53) it was 3.19 copy number/μL.

Molecule `C[C@H]1Cc2noc(-c3ccccc3F)c2CN1C(=O)Nc1cc(F)c(F)c(F)c1` [Example 3] registered an EC50 in data set [1] of 9 nM.

`Cc1cc(NC(=O)N2Cc3c(noc3-c3ccc(F)cc3F)C[C@@H]2C)ccc1F` [Example 21] showed a half-maximal effective concentration (EC50) in data set [1] of 5.58 nM.

In data set [1], `C[C@H]1Cc2noc(-c3ccccc3)c2CN1C(=O)Nc1cc(F)c(F)c(F)c1` [Example 2] registered an EC50 of 29.3 nM.

For the molecule `C[C@H]1Cc2noc(-c3ccc(F)cn3)c2CN1C(=O)Nc1cc(F)c(F)c(F)c1` [Example 1], in data set [2] (oral gavage, 10 mg/Kg), the F came out at 76.1%, the maximum concentration (Cmax) was 4.26 µM, the Tmax is 1 h and the AUC(0-t) stood at 47.2 µM·h. For the same molecule, in data set [2] (intravenous injection, 1 mg/Kg), the clearance was found to be 5.8 mL/min/kg, the half-life is 5.62 h, the AUC(0-t) was 6.71 µM·h and the Vd is 2.77 L/kg. This molecule also gave a concentration for a half-maximal effect (EC50) in data set [1] of 5.3 nM.

Take `C[C@H]1Cc2noc(-c3ccc(F)cc3F)c2CN1C(=O)Nc1ccnc(Cl)c1` [Example 22]: the midpoint of the response in data set [1], the EC50, lay at 35.2 nM.

In the case of `C[C@H]1Cc2noc(-c3ncccn3)c2CN1C(=O)Nc1cc(F)c(F)c(F)c1` [Example 25], the response in data set [1] was half-maximal at 14.9 nM (EC50). Against the preceding molecule, the EC50 is about 2.4-fold lower.

The values above are taken from US11572372B2, “Anti-HBVtetrahydroisoxazolo[4,3-c]pyridine compounds” (CHIA TAI TIANQING PHARMACEUTICAL GROUP CO., LTD., priority 2017, dated 2023).
